Data taken from patent US6569847B1, “Substituted azetidin-2-ones as cysteine protease inhibitors” (NAEJA Pharmaceuticals Inc., priority 1999, dated 2003).

Key:
[1] = target: Cathepsin B (Homo sapiens, UniProt P07858); test: Assay Procedure for Cathepsin B (fluorogenic substrate N-CBZ-Phe-Arg-AMC); format: biochemical; conditions: r Cathepsin B, pH 5.1, 10 min preincubation; read-out: CatB IC50
Experimental: Assay Procedure for Cathepsin B
To 170 μl of enzyme-buffer mixture (r Cathepsin B diluted to give approx. 30 F units/min, buffer: 56 mM Na acetate, 1.124 mM EDTA, 10 mM DTT, pH 5.1), 10 μl of inhibitor (dissolved in 100% DMSO ) was added.
After 10 min of incubation at mom temperature 20 μl of 5 mM substrate (N-CBZ-Phe-Arg-AMC, dissolved in DMSO ) was added to initiate reaction. Reading is followed for 10 min at the Fluoroscan reader (excitation at 380 nm, emission at 460 nm).
(§1) A plot of percentage of inhibition vs inhibitor concentration is obtained, and the IC50 is determined using a linear regression calculation (concentration of inhibitor which will give 50% inhibition).

[2] = target: Cathepsin L (Homo sapiens, UniProt P07711); test: Assay Procedure for Cathepsin L (fluorogenic substrate N-CBZ-Phe-Arg-AMC); format: biochemical; conditions: r Cathepsin L, pH 5.0, 10 min preincubation; read-out: CatL IC50
Experimental: Assay Procedure for Cathepsin L
To 170 μl of an enzyme-buffer mixture (enzyme: r Cathepsin L, diluted to give 25 F units/min, buffer: 58.8 mM Na citrate, 1.18 mM EDTA, 235 mM sodium chloride, 10 mM DTT, pH 5.0), 10 μl of an inhibitor (dissolved in 100% DMSO ) was added.
After 10 min of incubation at room temperature 20 μl of 1 mM substrate (N-CBZ-Phe-Arg-AMC) dissolved in DMSO was added to initiate the reaction. Reading was for 10 min at the Fluoroscan reader (excitation at 380 nm, emission at 460 nm).
as §1

[3] = target: T1, Cathepsin K (Homo sapiens, UniProt P43235); test: Assay Procedure for Cathepsin K (fluorogenic substrate N-CBZ-Phe-Arg-AMC); format: biochemical; conditions: r Cathepsin K, pH 5.5, 10 min preincubation; read-out: CatK IC50
T1 sequence (P43235 115-329): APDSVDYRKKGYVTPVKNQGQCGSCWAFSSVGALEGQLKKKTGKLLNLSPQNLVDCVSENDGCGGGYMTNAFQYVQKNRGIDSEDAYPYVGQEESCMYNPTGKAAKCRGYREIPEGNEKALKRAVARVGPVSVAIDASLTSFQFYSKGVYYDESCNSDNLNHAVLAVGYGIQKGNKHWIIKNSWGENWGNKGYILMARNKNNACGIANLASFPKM
Experimental: Assay Procedure for Cathepsin K
To 170 μl of enzyme-buffer mixture (r Cathepsin K diluted to give approx. 30 F units/min. Buffer: 100 mM sodium acetate, 5 mM EDTA, 20 mM L-Cysteine, 0.01% Brij , pH 5.5), 10 μl of inhibitor (dissolved in 100% DMSO) was added.
After 10 min of incubation at room temperature 20 μl of 2.7 mM substrate (N-CBZ-Phe-Arg-AMC, dissolved in DMSO) was added to initiate reaction. Reading is followed for 10 min at the Fluoroscan II plate reader (excitation at 380 nm, emission at 460 nm).
as §1

[4] = target: Cathepsin S (Homo sapiens, UniProt P25774); test: Assay Procedure for Cathepsin S (fluorogenic substrate CBZ-Val-Val-Arg-AMC); format: biochemical; conditions: r Cathepsin S, pH 6.5, 10 min preincubation; read-out: CatS IC50
Experimental: Assay Procedure for Cathepsin S
To 170 μl of enzyme-buffer mixture (r Cathepsin S diluted to give approx. 30 F unis/min, buffer: 100 mM sodium phosphate, 1 mM EDTA, 5 mM DTT ,0.01% Brij, pH 6.5.), 10 μl of inhibitor (dissolved in 100% DMSO) was added.
After 10 min of incubation at room temperature 20 μl of 1.2 mM substrate (CBZ-Val-Val-Arg-AMC, dissolved in DMSO) was added to initiate reaction. Reading is followed for 10 min at the Fluoroscan II plate reader (excitation at 380 nm, emission at 460 nm).
as §1

Cathepsin S, sequence (P25774 115-331, species assumed): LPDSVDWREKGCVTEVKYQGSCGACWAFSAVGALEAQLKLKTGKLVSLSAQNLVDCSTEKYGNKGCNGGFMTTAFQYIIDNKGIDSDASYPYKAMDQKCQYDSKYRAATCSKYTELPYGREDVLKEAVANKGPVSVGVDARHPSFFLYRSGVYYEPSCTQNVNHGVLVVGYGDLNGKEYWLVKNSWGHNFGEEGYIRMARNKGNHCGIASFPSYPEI
Cathepsin L, sequence (P07711 114-333, species assumed): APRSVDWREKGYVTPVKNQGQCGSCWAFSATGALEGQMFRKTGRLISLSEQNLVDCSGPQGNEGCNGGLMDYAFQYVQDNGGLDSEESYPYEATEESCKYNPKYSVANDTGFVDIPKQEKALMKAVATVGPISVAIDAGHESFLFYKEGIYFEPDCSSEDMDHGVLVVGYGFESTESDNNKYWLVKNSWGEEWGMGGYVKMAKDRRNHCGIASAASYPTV

Row | Structure (SMILES) | IC50 [1] [µM] | IC50 [2] [µM] | IC50 [3] [µM] | IC50 [4] [µM] | melting point [°C]
1 | C[C@@]1(NC(=O)[C@H](Cc2ccccc2)NC(=O)CCc2ccccc2)C(=O)N[C@H]1Oc1cccc(C(=O)OC(c2ccccc2)c2ccccc2)c1 [Example 18, (3S,4S)-3-[2S-2-(3-phenylpropionyl)-amino-2-benzyl]-acetamido-3-methyl-4-(3-diphenylmethoxycarbonyl)-phenoxy azetidine-2-one] | > 36.6 | 7.33 | 7.3 | 0.69 | –
2 | CC(C)(C)OC(=O)N[C@@H](Cc1cccnc1)C(=O)N[C@]1(C)C(=O)N[C@@H]1Oc1ccccc1 [Example 14] | 0.36 | 0.45 | 1.34 | 0.05 | –
3 | CC(C)(C)OC(=O)N[C@@H](Cc1cccnc1)C(=O)N[C@]1(C)C(=O)N[C@H]1Oc1ccccc1 [Example 12] | 11.3 | 2.27 | 7.74 | 1.8 | 109 to 110
4 | C[C@@]1(NC(=O)[C@H](CC2CCCCC2)NC(=O)CCCCCNC(=NC(=O)OCc2ccccc2)NC(=O)OCc2ccccc2)C(=O)N[C@H]1Oc1ccccc1 [Example 7, (3S,4S)-3-[2S-2-(6-N, N-dibenzyloxycarbonylguanidinohexanoyl)-amino-2-cyclohexylmethyl]-acetamido-3-methyl-4-phenoxy-azetidine-2-one] | 26.2 | 32.5 | 32.5 | 0.02 | –
5 | CC(=O)O[C@@H]1NC(=O)[C@@]1(C)NC(=O)[C@H](Cc1ccccc1)NC(=O)CCc1ccccc1 [Example 4, (3S,4S)-3-[2S-2-(3-phenylpropionyl)-amino-2-benzyl]-acetamido-3-methyl-4-acetoxy azetidine-2-one] | 10 | 1.91 | 1.14 | 0.098 | 163 to 164
